The source made the active and inactive calls.
What was measured:
Protein skinhead-1 = target: T1, Protein skinhead-1 (Caenorhabditis elegans, UniProt P34707); format: functional
T1 sequence (P34707 whole entry): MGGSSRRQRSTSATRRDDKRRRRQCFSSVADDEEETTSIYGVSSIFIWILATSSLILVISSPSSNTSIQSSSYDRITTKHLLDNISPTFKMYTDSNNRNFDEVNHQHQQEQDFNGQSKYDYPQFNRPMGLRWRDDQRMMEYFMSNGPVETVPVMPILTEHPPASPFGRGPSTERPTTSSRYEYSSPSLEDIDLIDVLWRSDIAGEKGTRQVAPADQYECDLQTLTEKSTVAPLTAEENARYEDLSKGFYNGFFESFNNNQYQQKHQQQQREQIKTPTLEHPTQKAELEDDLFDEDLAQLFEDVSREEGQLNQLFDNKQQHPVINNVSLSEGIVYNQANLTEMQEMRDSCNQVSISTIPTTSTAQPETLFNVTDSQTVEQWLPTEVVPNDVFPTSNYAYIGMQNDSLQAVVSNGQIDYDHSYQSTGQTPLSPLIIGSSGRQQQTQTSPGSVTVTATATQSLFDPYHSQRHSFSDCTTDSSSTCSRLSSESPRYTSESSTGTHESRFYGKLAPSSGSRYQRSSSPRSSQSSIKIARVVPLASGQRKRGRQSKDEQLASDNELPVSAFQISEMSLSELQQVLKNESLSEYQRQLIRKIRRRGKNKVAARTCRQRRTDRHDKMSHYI

cells [1] = format: functional, cell-based
cells [2] = format: functional, cell-based; remark: listed apart in the source
[3] = target: T2, Ubiquitin-conjugating enzyme E2 N (Homo sapiens, UniProt P61088); format: functional;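 also: Dose-response confirmation in a TR-FRET assay detecting UBC13-driven polyubiquitin chain formation, inhibition measured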
T2 sequence (P61088 whole entry): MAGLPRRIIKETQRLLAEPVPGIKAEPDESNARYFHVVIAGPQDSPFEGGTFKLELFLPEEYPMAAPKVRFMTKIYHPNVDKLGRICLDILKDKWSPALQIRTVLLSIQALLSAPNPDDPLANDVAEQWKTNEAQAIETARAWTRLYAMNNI

[4] = intracellular Trypanosoma cruzi inhibitors in host cells – cell-based, plate reader, cherry-pick samples, set 3, dose response (AID 651818); format: functional;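 also: compounds incubated with infected cells for about four days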
[5] = inhibitors of clade B AD8 Env fusion, dose response, cell-based, cherry-pick (AID 652062); format: functional;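 also: luciferase signal from cell-cell fusion driven by HIV-1 clade B AD8 Env; potency is for inhibitors of fusion seen as a drop in luminescence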
[6] = ZM109 Env clade C HIV-1 fusion inhibitors, dose response, HeLa effector, CEM target cells, luciferase, cherry-pick (AID 652058); format: functional, cell-based
[7] = inhibitors of HIV Env-driven cell fusion, dose response, cherry-pick (AID 652057); format: functional, cell-based
[8] = off-target signal loss in HeLa-CEM21 co-culture – HeLa F-luc CTL cells, cherry-picked, counter-screen for HIV-1 Env fusion inhibitor project, dose response (AID 652040); format: functional, cell-based;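 also: potency for signal decrease marking cytotoxic or nonspecific inhibition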
[9] = target: T3, Replicative DNA helicase DnaB (Mycobacterium tuberculosis, UniProt P9WMR3); assay: DnaB intein splicing inhibitors, dose response, biochemical, cell-free fluorescence (AID 449749); format: functional
T3 sequence (P9WMR3 whole entry): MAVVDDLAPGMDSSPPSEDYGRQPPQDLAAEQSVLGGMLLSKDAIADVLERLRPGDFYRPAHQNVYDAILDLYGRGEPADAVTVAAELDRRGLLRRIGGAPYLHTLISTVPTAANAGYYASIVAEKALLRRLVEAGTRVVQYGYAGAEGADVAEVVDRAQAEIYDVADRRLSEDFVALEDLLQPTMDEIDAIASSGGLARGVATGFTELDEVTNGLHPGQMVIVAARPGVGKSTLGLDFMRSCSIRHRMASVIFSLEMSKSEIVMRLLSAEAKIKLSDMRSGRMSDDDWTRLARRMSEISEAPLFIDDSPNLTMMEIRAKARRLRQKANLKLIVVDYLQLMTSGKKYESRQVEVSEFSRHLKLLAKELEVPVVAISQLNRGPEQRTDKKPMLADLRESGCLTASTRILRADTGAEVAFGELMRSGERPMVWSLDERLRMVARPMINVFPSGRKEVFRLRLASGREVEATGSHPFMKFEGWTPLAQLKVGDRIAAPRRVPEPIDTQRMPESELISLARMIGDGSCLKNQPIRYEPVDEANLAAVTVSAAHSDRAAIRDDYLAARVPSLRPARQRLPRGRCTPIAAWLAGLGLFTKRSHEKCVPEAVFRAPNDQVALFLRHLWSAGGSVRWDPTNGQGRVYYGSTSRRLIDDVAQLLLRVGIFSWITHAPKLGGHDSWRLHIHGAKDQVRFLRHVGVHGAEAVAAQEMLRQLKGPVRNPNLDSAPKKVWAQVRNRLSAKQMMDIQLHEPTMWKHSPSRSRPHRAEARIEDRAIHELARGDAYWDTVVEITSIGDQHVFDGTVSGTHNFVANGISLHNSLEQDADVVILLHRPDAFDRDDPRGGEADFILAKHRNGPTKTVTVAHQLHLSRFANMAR

Protein RecA = target: T4, Protein RecA (Mycobacterium tuberculosis, UniProt P9WHJ3); assay: Fluorescence Cell-Free Homogeneous Dose Retest to Identify Inhibitors of RecA-Intein Splicing Activity. [Related pubchem assays (depositor defined):AID2097, AID2223, AID489010, AID492950]; format: functional
T4 sequence (P9WHJ3 whole entry): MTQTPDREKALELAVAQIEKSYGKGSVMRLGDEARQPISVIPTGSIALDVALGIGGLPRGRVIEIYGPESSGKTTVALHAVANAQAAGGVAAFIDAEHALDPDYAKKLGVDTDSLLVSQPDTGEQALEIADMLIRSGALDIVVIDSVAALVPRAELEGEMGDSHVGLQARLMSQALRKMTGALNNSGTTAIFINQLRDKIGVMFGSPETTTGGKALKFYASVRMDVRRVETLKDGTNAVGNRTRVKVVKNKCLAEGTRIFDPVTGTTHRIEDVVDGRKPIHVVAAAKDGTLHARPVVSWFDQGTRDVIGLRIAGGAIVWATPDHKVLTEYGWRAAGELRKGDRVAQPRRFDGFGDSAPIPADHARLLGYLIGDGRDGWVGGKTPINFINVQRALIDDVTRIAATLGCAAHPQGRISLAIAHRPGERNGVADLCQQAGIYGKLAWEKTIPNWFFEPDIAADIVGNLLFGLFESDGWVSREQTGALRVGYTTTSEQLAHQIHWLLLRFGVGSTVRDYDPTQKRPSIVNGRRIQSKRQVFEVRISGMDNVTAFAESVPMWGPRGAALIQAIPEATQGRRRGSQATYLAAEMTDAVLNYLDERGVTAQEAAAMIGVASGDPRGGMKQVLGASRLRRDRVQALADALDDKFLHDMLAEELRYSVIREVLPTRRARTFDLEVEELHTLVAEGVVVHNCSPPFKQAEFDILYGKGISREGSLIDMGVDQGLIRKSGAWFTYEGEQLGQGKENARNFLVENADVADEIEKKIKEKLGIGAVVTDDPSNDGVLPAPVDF

## CCOc1cc2c(cc1OCC)C(C(=O)O)C(c1cc(OC)c(OC)c(OC)c1)N(C)C2=O (stereo not given)
Protein skinhead-1
  IC50: > 100 µM (inactive)

## Cc1ccc(-c2nc(CS(=O)(=O)CC(=O)NC3CCC(C)CC3)c(C)o2)cc1 (stereo not given)
Cells [1]
  EC50: > 350 µM (not active)
Cells [2]
  EC50: > 350 µM (not active)

## O=C(CN1CCOCC1)c1cccc2ccccc12
Protein skinhead-1
  IC50: > 100 µM (inactive)

## N#Cc1ccsc1NC(=O)C1CCN(C(=O)c2ccc(F)cc2)CC1
[3]
  IC50: > 20 µM (inactive)

## Cc1ccc(S(=O)(=O)Nc2ccc3c(c2)C(=O)N([C@H](C)CO)C[C@H](C)[C@H](CN(C)Cc2ccc(C(F)(F)F)cc2)OCCCC[C@@H](C)O3)cc1
[4]
  AC50: 3.01 µM (active)

## CN(C)CCCNC(=O)C(=O)NCC1OCCN1S(=O)(=O)c1cccs1 (stereo not given)
[3]
  IC50: > 20 µM (inactive)

## COc1ccc(C(CNC(=O)c2ccc(-c3nc4ccccc4s3)o2)N2CCCC2)cc1 (stereo not given)
[3]
  IC50: > 20 µM (inactive)

## CCc1ccc(-c2cc3c(=O)n(CC(=O)NCCCN4CCC(Cc5ccccc5)CC4)nc(C)n3n2)cc1
[3]
  IC50: > 20 µM (inactive)

## C[C@H](CO)N1C[C@H](C)[C@H](CN(C)C(=O)Nc2ccc(C(F)(F)F)cc2)Oc2c(NC(=O)c3nc4ccccc4s3)cccc2C1=O
[4]
  AC50: 2.35 µM (active)

## C[C@H](CO)N1C[C@H](C)[C@@H](CN(C)Cc2ccc(C(=O)Nc3ccccc3N)cc2)Oc2c(NC(=O)c3cnccn3)cccc2C1=O
[4]
  AC50: 2.45 µM (active)

## CCOC(=O)c1ccccc1NC(=O)Cc1ccccc1OC
Protein skinhead-1
  IC50: > 100 µM (inactive)

## CN1C(=O)c2cc(NS(=O)(=O)c3ccccc3F)ccc2OC[C@@H]2O[C@H](CC(=O)NC3Cc4ccccc4C3)CC[C@@H]21
[5]
  AC50: 8.06 µM (active)
[6]
  AC50: 2.99 µM (active)
[7]
  AC50: 2.89 µM (active)

## CSc1nsc(SCc2ccc(F)cc2)n1
Protein skinhead-1
  IC50: 18.9 µM (active)

## FC(F)(F)c1cc(CCN2CCNC[C@@H]2c2ccccc2)cc(C(F)(F)F)c1
[3]
  IC50: > 20 µM (inactive)

## Cc1onc(-c2ccccc2)c1C(=O)OCCOc1cccc(Cl)c1
[8]
  AC50: > 70 µM (inactive)

## COc1ccc(S(=O)(=O)N(C)C[C@@H]2Oc3ncc(-c4cc5ccccc5o4)cc3C(=O)N([C@H](C)CO)C[C@@H]2C)cc1
[5]
  AC50: 16.4 µM (active)
[7]
  AC50: 10.5 µM (active)

## Cc1ccc(C(=O)NCCCNCCCN(C)C)cn1
[3]
  IC50: > 20 µM (inactive)

## COc1ccc(S(=O)(=O)Nc2ccc3c(c2)CC(=O)N([C@H](C)CO)C[C@@H](C)[C@H](CN(C)CC2CCCCC2)O3)cc1
[4]
  AC50: 2.97 µM (active)

## C1CC1Cc1noc(CN2CCN(CC3CC3)CC2)n1
Cells [1]
  EC50: > 350 µM (not active)
Cells [2]
  EC50: > 350 µM (not active)

## CC1CCN(C(=O)c2ncn3c2C(=O)NC[C@@H]3C)CC1
[6]
  AC50: 15.7 µM (active)
[7]
  AC50: 3.59 µM (active)
[8]
  AC50: 18 µM (active)

## CCOC(=O)CN1C(=N)N(c2nc(NC(C)C)nc(NC(C)C)n2)CC1=O
Cells [1]
  EC50: > 350 µM (not active)
Cells [2]
  EC50: > 350 µM (not active)

## COc1ccc(CCN(Cc2cccs2)S(=O)(=O)c2ccc(-n3cnnn3)cc2)cc1OC
[5]
  AC50: 9.27 µM (active)
[6]
  AC50: 20.3 µM (active)
[7]
  AC50: 12.7 µM (active)

## C[C@H](CO)N1C[C@H](C)[C@H](CN(C)Cc2ccc3c(c2)OCO3)Oc2c(NC(=O)Nc3ccc(C(F)(F)F)cc3)cccc2C1=O
[4]
  AC50: 0.956 µM (active)

## CSc1cccc(NC(=O)c2cccc3cccnc23)c1
Protein skinhead-1
  IC50: 14.7 µM (active)

## O=C(NCC1CCCO1)c1sc2cc(Cl)ccc2c1Cl (stereo not given)
Cells [1]
  EC50: 66.4 µM (active)
Cells [2]
  EC50: > 350 µM (not active)

## CN(C[C@H](Cc1ccccc1)N(C[C@H](c1ccccc1)N(CCc1ccccc1)N=O)N=O)N=O
[6]
  AC50: 9.49 µM (active)
[7]
  AC50: 7.62 µM (active)
[8]
  AC50: 35.2 µM (active)

## C[C@@H]1CN([C@H](C)CO)C(=O)c2cccc(NS(=O)(=O)c3ccc(Cl)cc3)c2O[C@@H]1CN(C)Cc1ccccc1
[4]
  AC50: 20 µM (inactive)

## O=C(c1nc[nH]c1C(=O)N1CCc2ccccc2C1)N1CCc2ccccc2C1
Protein skinhead-1
  IC50: > 100 µM (inactive)

## C[C@@H]1CN([C@@H](C)CO)C(=O)c2cccc(NC(=O)CCCCCC(=O)Nc3ccccc3N)c2O[C@@H]1CN(C)Cc1ccc(Cl)c(Cl)c1
[4]
  AC50: 2.51 µM (active)

## COc1ccc(NC(=O)Nc2ccc3c(c2)C(=O)N([C@H](C)CO)C[C@H](C)[C@H](CN(C)S(=O)(=O)c2ccc(F)cc2)O3)cc1
[5]
  AC50: 27.5 µM (active)
[6]
  AC50: 16.6 µM (active)
[7]
  AC50: 13 µM (active)

## CCCCCCn1c(N2CCC(C(N)=O)CC2)nc2c1c(=O)n(C)c(=O)n2C
Protein skinhead-1
  IC50: > 100 µM (inactive)
[9]
  AC50: > 380 µM (inactive)
Protein RecA
  EC50: > 380 µM (inactive)

## CCOc1ccccc1NC(=O)COc1ccc2c(c1)OCO2
Cells [1]
  EC50: > 350 µM (not active)
Cells [2]
  EC50: > 350 µM (not active)

## Cc1cccc(NC(=O)Cc2noc3ccccc23)c1
Cells [1]
  EC50: 115 µM (active)
Cells [2]
  EC50: > 350 µM (not active)

## COc1ccc(C)cc1NC(=O)c1ccc(N(C)S(C)(=O)=O)cc1
Cells [1]
  EC50: > 350 µM (not active)
Cells [2]
  EC50: > 350 µM (not active)

## C[C@H](CO)N1C[C@H](C)[C@@H](CN(C)Cc2ccc(C(F)(F)F)cc2)Oc2c(NC(=O)Nc3ccc(F)cc3)cccc2C1=O
[4]
  AC50: 5.99 µM (active)

— ChEMBL document CHEMBL1201862, “PubChem BioAssay data set” (2004)
